One molecule from patent US9114119B2, “Use of serine palmitoyl transferase inhibitors for preventing and delaying inherited retinal degenerations and compositions thereof” (Universita' degli Studi di Milano, priority 2009, dated 2015) can be followed below.

The subject of data set [1] is endogenous ceramide in the retina of rd10 mutant mice. As to the kind of experiment: Retinal endogenous ceramide levels (diacylglycerol kinase test) after single intravitreal injection, rd10 mice. The note with it: single intravitreal injection 500 nanoliters 188 mM at P19, retinas isolated at P21. It counts as in vivo, mouse. The method, then:
(§1) The levels of the sphingolipid endogenous ceramide were tested after isolation of the retina from anaesthetised rd10 mutant and wild-type (wt) mice of various age groups. The isolated retinas were treated for lipid extraction, and the total endogenous ceramide/inorganic phosphate ratio was determined with the diacylglycerol kinase test.
(§2) Single intravitreal injections of 500 nanoliters of myriocin (188 mM) were administered to the right eye of rd10 and wt mice aged P19. The vehicle alone (DMSO) was injected into the left eye of the same animals. The left and right retinas were isolated at P21, and treated separately for the biochemical ceramide test as explained above.

Data set [2] has as its system endogenous ceramide in the retina of wt mice. As to the kind of experiment: Retinal endogenous ceramide levels (diacylglycerol kinase test) after single intravitreal injection, wt mice. The class given is in vivo, mouse. The note with it: single intravitreal injection 500 nanoliters 188 mM at P19, retinas isolated at P21. The method, then:
as §1, §2

The subject of data set [3] is pyknotic photoreceptors of rd10 mice. Put plainly: Pyknotic photoreceptor count after intravitreal injection. It counts as in vivo, mouse. The method, then: as §2
The animals injected at P19 were collected at P21, and their eyes were enucleated and fixed. The left and right retinas were isolated, stained with fluorescent DNA-binding molecules, and mounted on slides. The external nuclear layer which contains the photoreceptor cores was sampled under the confocal microscope at regular intervals along the four retinal meridians. The images were exported to a computerised workstation, and the pyknotic photoreceptors were counted in each scanned field. The total number of pyknotic photoreceptors was calculated for each pair of treated and control retinas.

In data set [4] the test system is retinal morphology of rd10, wt and Thy1-GFP mice. The note with it: mouse, in vivo.
The subject of the next data set is rd10 and wt mice. Put plainly: Toxicity studies of intraocular injections. The class given is in vivo, mouse. The source says: It should be noted that myriocin has only rarely been used in vivo to date, and never injected intraocularly. The dose was chosen on the basis of the available literature on cultured cells, calculating a dilution of ⅞ times, due to the vitreous humour. A time window was selected for intraocular administration which preceded the peak death of the apoptotic photoreceptors, for the crucial reason of preventing the majority of photoreceptors from entering the apoptotic cycle.

Data set [5] has as its system photoreceptors of rd10 mice. The note with it: mouse, in vivo. The text has this:
The functional recovery of the photoreceptors was studied by recording a flash electroretinogram (ERG), a technique widely used to test the retinal physiology of human patients, especially those suffering from RP.

Data set [6] relates to photoreceptors of rd10 mice. As to the kind of experiment: Rows of photoreceptor nuclei in the outer nuclear layer (ONL) after nanosphere eyedrops. It counts as in vivo. The note with it: rd10 mice aged P24, MYR-SLN treated vs control mouse (FIG. 1a). The source says:
Following ERG recordings, animals were enucleated, their eyes fixed and sectioned and retinal sections stained with fluorescent nuclear dyes to evaluate the thickness of the outer nuclear layer (ONL) and the overall retinal morphology.
A quantitative analysis of the average number of rows of nuclei in the ONL of MYR-SLN and U-SLN (Unloaded-Solid Lipid Nanospheres) treated mice is given in FIG. 1b.

Structures are written as SMILES.

Turning to `CCCCCCC(=O)CCCCCC/C=C/C[C@@H](O)[C@H](O)[C@@](N)(CO)C(=O)O` [myriocin], in data set [1], the “retinal ceramide levels vs control (DMSO) eyes” value is “Significantly lower ceramide levels”. For the same molecule, the retinal ceramide levels result in data set [2] is “did not significantly reduce”. Moreover, the “reduction of photoreceptor death rate (pyknotic photoreceptor count)” value in data set [3] (rd10 mice injected at P19, collected at P21, vs DMSO eye, n=17) is recorded as “approx. 50%”. The “number of pyknotic (dying) photoreceptors” value in data set [3] (rd10 mutant mice, intravitreal injection) was “marked reduction”. Further, in data set [4], the “morphology of ganglion cells and retinal stratification” value was “excellent maintenance of the morphology of the ganglion cell and structure”; the retinal morphology entry is on record as “normal retinal morphologies”. Besides, in the data set on rd10 and wt mice (rd10 or wt mice), the “adverse effects of intraocular injections” value is listed as “do not cause adverse effects”. Further, the “inflammatory response symptoms or increased ocular reactivity” value in the data set on rd10 and wt mice (treated animals, intraocular injection) is “no general or local inflammatory response symptoms”. Also, in data set [5], the “recovery of ERG response” value is on record as “no recovery of ERG response/reaction”. Moreover, the “number of preserved nuclear rows in the ONL” value in data set [6] is on record as “significantly higher”.
